Assay results reported in patent publication US20190177440A1, “COMPOUND OR SALT THEREOF, ANTI-INFLAMMATORY AGENT, ANTI-CANCER AGENT AGAINST LUNG CANCER, METHOD OF PRODUCING COMPOUND OR SALTS THEREOF, METHOD OF TREATING INFLAMMATORY DISEASES AND METHOD OF TREATING LUNG CANCER” (TFK CO., LTD., priority 2016, published 2019).

What was measured:
NF-κB = experiment: Nuclear NF-κB level in RAW264.7 cells stimulated with LPSp (Example 5); type: cell-based, mouse; conditions: final 1, 100 and 10,000 ng/mL, then LPSp 100 ng/mL, FIG. 5
Protocol: The culture medium was added to mouse macrophage cells (RAW264.7, ATCC) to prepare solutions at concentrations of 1.067×10^6 cells/mL. The solutions were seeded in 6 well plates in 3 mL portions, i.e., 3.2×10^6 cells/3 mL/well. After seeding, the test solution was incubated at 37° C. in a 5% CO2 for 2 hours, and 30 μL of the test solution was added to each well. After adding the test solution, the test solution was incubated at 37° C. in a 5% CO2 for 24 hours. The culture supernatant of each of the wells was then collected in a 15 mL tube. Then, 1 mL of the fresh culture solution was added to each of the wells, and after spreading over the entire well, the operation of collecting the culture solution into the 15 mL tube was repeated twice. Thereafter, the culture solution collected in the 15 mL tube was centrifuged at 1,000 rpm for 3 minutes, the supernatant was removed, and 3 mL of a new culture solution at 37° C. was added to suspend the culture solution, and centrifuged again under the same conditions. After centrifugation, the supernatant was removed, and 2 mL of the above-mentioned culture solution at 37° C. was added to the precipitate and suspended. Then, 2 mL of the suspension was added to each well to which 1 mL of a new culture medium had been added in advance. Thereafter, 30 μL of a new culture medium was added (hereinafter, this step is referred to as a “culture medium addition step”). After incubation at 37° C. in a 5% CO2 for 30 minutes, the culture supernatants of the wells were collected in 15-mL tubes, centrifuged at 1,000 rpm for 3 minutes, and the supernatants were removed by an aspirator. In addition, to the wells of the 6-well plate from which the culture supernatant was removed, 3 mL of cooled PBS (Phosphate buffered saline)/Phosphatase Inhibitors solution was added, the cells were removed by pipetting, and the cell suspension was added to the 15-mL tubes. The 15 mL tube was centrifuged at 1,000 rpm for 3 minutes, the supernatant was removed by an aspirator, and 0.5 mL of the cooled PB S/Phosphatase Inhibitors solution was added to the 15 mL tube and suspended to prepare a cell suspension. Nucleoproteins were extracted from the cell suspensions using Nuclear Extract kit (manufactured by Active Motif).
The amount of NF-κB in the nucleoprotein was confirmed by measuring the absorbance using the Trans AM NF KB p65 kit (manufactured by Active Motif).
In this example, an experiment was conducted in the same manner as in Example 4 except for the following two points, and the amount of NF-κB in the nucleoprotein was confirmed by measuring the absorbance. That is, in this example, three types of test solutions were used as the test solution, in which the concentration of the purified product was 100 ng/mL, 10,000 ng/mL, and 1,000,000 ng/mL. […]

TNF-α = TNF-α production in RAW264.7 cells stimulated with LPSp (Example 7); type: cell-based, mouse; conditions: final 1 ng/mL to 10 μg/mL, then LPSp 100 ng/mL, FIG. 7
Protocol: The culture medium was added to mouse macrophage cells (RAW264.7, ATCC) to prepare solutions at concentrations of 4×10^5 cells/mL. The solutions were seeded in 96-well flat-bottomed plates in 100 μL portions, i.e., 4×10^4 cells/100 μL/well. After seeding, the cells were incubated at 37° C. in 5% CO2 for 2 hours until they adhered to the bottoms of the wells and extended. Next, 100 μL of the test solution was added to each well. After adding the test solution, the cells were incubated at 37° C. in a 5% CO2 for 24 hours. After the incubation, the culture supernatant of the wells was removed, 150 μl of the above-mentioned culture solution was newly added (hereinafter, this step is referred to as a “culture solution adding step”), and the wells were incubated at 37° C. in a 5% CO2 for 24 hours.
After incubation, 50 μl of culture supernatant from each well was collected, transferred to each well of new 96-well flat-bottom plates, and absorbance was measured using mouse TNF a assay kit (manufactured by Biolegend) and converted to TNF-α concentrations.
In this example, an experiment was carried out in the same manner as in Example 6 except for the following two points, and 50 μL of culture supernatant of each well was collected and TNF-α concentration was measured. That is, in this example, a total of five test solutions were used as the test solution, in which the concentration of the purified product was 20 μg/mL, 2 μg/mL, 200 ng/mL, 20 ng/mL, and 2 ng/mL. Since the five test solutions are diluted twice when added to the cells, the final concentrations of the purified products are 10 μg/mL, 1 μg/mL, 100 ng/mL, 10 ng/mL, and 1 ng/mL, respectively. In this example, in the culture medium adding step in Example 5, 150 μL of the culture medium containing LPSp at a final concentration of 100 ng/mL was added instead of 150 μL of the culture medium.

PPARγ gene = PPARγ gene expression in THP-1 cells by CAGE method (Example 8-2); type: cell-based, human; conditions: 3 hours
Protocol: The same culture medium as in Example 8-1(2) was added to the THP-1 cells to prepare solutions in which the concentrations of the cells were 5×10^5 cells/mL. The expression level of the PPARγ gene in this solution was measured by the CAGE method and found to be 3.97 TPM (Tags Per Million). After the measurement, the cell solution was divided into the following four groups. That is, there are four groups: a group in which a solution of the purified product is added to the cell solution so as to have a final concentration of 1 μg/mL (Example 8-2A), a group in which a solution of the purified product is added to the cell solution so as to have a final concentration of 10 μg/mL (Example 8-2B), a group in which nothing is added to the cell solution (Comparative Example 8-2A), and a group in which a LPSp solution is added to the cell solution so as to have a final concentration of 100 ng/mL (Comparative Example 8-2B). After culturing the four groups for 3 hours, the expression level of the PPARγ gene was measured by the CAGE method. FIG. 27 is a graph showing the expression levels of the PPARγ genes. In FIG. 27, the horizontal axis represents the incubation time, and the vertical axis represents the expression amount (TPM) of the PPARγ gene. […] In contrast, in Comparative Example 8-2A, the expression level of the PPARγ gene decreased slightly from 3.97 TPM to 3.89 TPM during 3 hours, and in Comparative Example 8-2B, the expression level of the PPARγ gene increased from 3.97 TPM to 4.31 TPM during 3 hours, but the degree of the increase was not significant.

CCCCCC/C=C/CCCCCC(=O)OC(CCCCCCCCCCC)CC(=O)NC1C(OCC2OC(OP(=O)(O)O)C(NC(=O)CC(=O)CCCCCCCCCCC)C(OC(=O)CC(O)CCCCCCC)C2O)OC(COC2(C(=O)O)CC(OC3(C(=O)O)CC(OC4OC(C(=O)O)C(OC5OC(CO)C(O)C(O)C5O)C(O)C4O)C(O)C(C(O)CO)O3)C(OC3OC(CO)C(O)C(O)C3O)C(C(O)CO)O2)C(OP(=O)(O)O)C1OC(=O)CC(O)CCCCCCC (stereo not drawn) [Formula (A2)]
Equivalent results were obtained: amount of NF-κB in the nucleoprotein (absorbance) (NF-κB) | TNF-α concentration in culture supernatant (TNF-α) | effect on expression of the PPARγ gene (in words) (PPARγ gene)

CCCCCC/C=C/CCCCCC(=O)OC(CCCCCCCCCCC)CC(=O)NC1C(OCC2OC(OP(=O)(O)O)C(NC(=O)CC(=O)CCCCCCCCCCC)C(OC(=O)CC(O)CCCCCCC)C2O)OC(COC2(C(=O)O)CC(OC3(C(=O)O)CC(O)C(OC4OC(C(=O)O)C(OC5OC(CO)C(O)C(O)C5O)C(O)C4O)C(C(O)CO)O3)C(OC3OC(COP(=O)(O)O)C(OC4OC(CO)C(O)C(O)C4O)C(O)C3O)C(C(O)CO)O2)C(OP(=O)(O)O)C1OC(=O)CC(O)CCCCCCC (stereo not drawn) [Formula (B1)]
Equivalent results were obtained: amount of NF-κB in the nucleoprotein (absorbance) (NF-κB) | TNF-α concentration in culture supernatant (TNF-α) | effect on expression of the PPARγ gene (in words) (PPARγ gene)

CCCCCC/C=C/CCCCCC(=O)OC(CCCCCCCCCCC)CC(=O)NC1C(OCC2OC(OP(=O)(O)O)C(NC(=O)CC(=O)CCCCCCCCCCC)C(OC(=O)CC(O)CCCCCCC)C2O)OC(COC2(C(=O)O)CC(OC3(C(=O)O)CC(OC4OC(C(=O)O)C(OC5OC(CO)C(O)C(O)C5O)C(O)C4O)C(O)C(C(O)CO)O3)C(OC3OC(COP(=O)(O)O)C(OC4OC(CO)C(O)C(O)C4O)C(O)C3O)C(C(O)CO)O2)C(OP(=O)(O)O)C1OC(=O)CC(O)CCCCCCC (stereo not drawn) [Formula (A1)]
Equivalent results were obtained: amount of NF-κB in the nucleoprotein (absorbance) (NF-κB) | TNF-α concentration in culture supernatant (TNF-α) | effect on expression of the PPARγ gene (in words) (PPARγ gene)

CCCCCC/C=C/CCCCCC(=O)OC(CCCCCCCCCCC)CC(=O)NC1C(OCC2OC(OP(=O)(O)O)C(NC(=O)CC(=O)CCCCCCCCCCC)C(OC(=O)CC(O)CCCCCCC)C2O)OC(COC2(C(=O)O)CC(OC3(C(=O)O)CC(O)C(OC4OC(C(=O)O)C(OC5OC(CO)C(O)C(O)C5O)C(O)C4O)C(C(O)CO)O3)C(OC3OC(CO)C(O)C(O)C3O)C(C(O)CO)O2)C(OP(=O)(O)O)C1OC(=O)CC(O)CCCCCCC (stereo not drawn) [Formula (B2)]
Equivalent results were obtained: amount of NF-κB in the nucleoprotein (absorbance) (NF-κB) | TNF-α concentration in culture supernatant (TNF-α) | effect on expression of the PPARγ gene (in words) (PPARγ gene)
